Values of other authors, collected in paper PMC9328939, “A Randomized Double‐Blind Placebo‐Controlled First‐In‐Human Phase 1 Trial of TransCon PTH in Healthy Adults” (Journal of Bone and Mineral Research, 2020).

Columns and labels:
PTH/PTHrP receptor = details: stated without data; no reference given; cited from earlier work
healthy volunteers = details: sCa raised comparably to a calcium clamp (10.3 mg/dL; FECa 6.0% to 7.0%) by infusion of PTHrP(1-36); cited from earlier work
Description: TransCon PTH may also positively impact hypercalciuria, a major cause of morbidity in patients with HP.

[1] = short-acting PTH(1-84); cited from earlier work
Description: The TransCon PTH bone turnover data are similar to the published literature, which illustrate that continuous PTH administration is not anabolic. […] TransCon PTH did modestly and transiently increase the bone resorption marker, serum CTx, consistent with t ...

## PTH(1‐33): metabolite of PTH(1-34) shortened by a single amino acid; part of Free PTH (SVSEIQLMHNLGKHLNSMERVEWLRKKLQDVHN; Parathyroid hormone; UniProt P01270 32-64, looked up, fragment)
PTH/PTHrP receptor
  potency at the PTH/PTHrP receptor relative to PTH(1-34): equipotency

## PTHrP(1‐36): parathyroid hormone-related protein fragment infused in healthy volunteers in a literature study
Healthy volunteers
  FECa: did not differ from normal controls

B1: PTH(1‐84): parathyroid hormone for injection, once-daily short-acting rhPTH(1-84) (protein, UniProt P01270 32-115, looked up)
Parathyroid hormone: SVSEIQLMHNLGKHLNSMERVEWLRKKLQDVHNFVALGAPLAPRDAGSQRPRKKEDNVLVESHEKSLGEADKADVNVLTKAKSQ
modifications: Parathyroid hormone
[1]
  persistent increase in CTx: 200%
